Experimental data reported in patent publication US20200399250A1, “Pyrimidine Derivatives as Tropomyosin Receptor Kinase A (TRKA) Inhibitors” (BIOMED X GMBH, priority 2017, published 2020).
Several values for one entry are separate records, joined by “and”; a condition that tells them apart may be missing. Equal values may be shown once. Entries after “also recorded” stand apart in the source; their conditions may differ.

How the values were obtained:
[1] = Plasma concentration of compound a1 after i.v. injection in mice (LC-MS-MS); assay type: in vivo, C57Bl/6 mice; conditions: for Plasma Conc. of Compound a1: 1 hour, single animal; for concentration at 1 h: female, C57Bl/6, mouse, plasma, intravenous
Description: (§1) Compound a1 was synthesized under contract by the company Enamine Ltd. according to Example 1. Dimethylsulfoxide (DMSO) from J. T. Baker (Germany), Cremophor EL (Polyoxyethyleneglycerol triricinoleate 35 castor oil) from BASF (Germany), and Saline solution 0.9% from B. Braun (Germany) were used in this study. Two types of formulations were prepared: a formulation with a high dose of compound a1 (9 mM) and a formulation with a low dose of compound a1 (1.8 mM); c.f. Tables 5 and 6. First, a 100 mM stock solution of compound a1 in DMSO was prepared by dissolving 18.46 mg of compound a1 (molecular weight of 461.56 g/mol) in 400 μl DMSO at room temperature. The formulation with the high dose of a1 was prepared using 9% a1-DMSO stock solution, 10% Cremophor EL, and 81% saline. The formulation with the low dose of a1 contained 1.8% a1-DMSO stock solution, 5% Cremophor EL, and 93.2% saline; c.f. FIG. 2.
Experiments were carried out in accordance with the EU Directive 86/609/EEC on the protection of animals used for scientific purposes. Female adult C57Bl/6 mice (6-8 weeks old, body weight 20 g) were treated with 5 mg/kg (low dose) and 25 mg/kg (high dose) compound a1 or with vehicle (formulations without compound a1) or with saline by intravenous (i.v.) injections for 1 hour using a 1 ml syringe (29-G, Terumo); c.f. Table 6. After injection, the mice were returned to their home cages, and after 1 hour, the mice were anaesthetized with isoflurane. Terminal blood samples were collected using a 1 ml syringe (20-G needle, B. Braun). The blood was immediately transferred into a 1.3 ml heparin-coated tube (Sarstedt). Plasma was collected by centrifugation at 1500 g for 15 minutes. The supernatant was placed in a 1.5 ml tube on dry ice and stored at −20° C.
The quantification of compound a1 in murine plasma samples was performed via liquid chromatography tandem mass spectrometry (LC-MS-MS).

C57Bl/6 mice = assay: Toxicity after i.v. injection in mice; assay type: in vivo; conditions: for Toxicity: single animal
Description: as §1, with “.” for “Compound a1 was synthesized under contract by the company Enamine Ltd. according to Example 1.”, “[…].” for “First, a 100 mM stock solution of compound a1 in DMSO was prepared by dissolving 18.46 mg of compound a1 (molecular weight of 461.56 g/mol) in 400 μl DMSO at room temperature.”
Experiments were carried out in accordance with the EU Directive 86/609/EEC on the protection of animals used for scientific purposes. […]; c.f. Table 6. After injection, the mice were returned to their home cages, and after 1 hour, the mice were anaesthetized with isoflurane. Terminal blood samples were collected using a 1 ml syringe (20-G needle, B. Braun). The blood was immediately transferred into a 1.3 ml heparin-coated tube (Sarstedt). Plasma was collected by centrifugation at 1500 g for 15 minutes. The supernatant was placed in a 1.5 ml tube on dry ice and stored at −20° C.

TrkA [2] = assay: KdELECT Kd measurement (KINOMEscan), TrkA; assay type: binding
Description: (§2) Kd measurements were done via the KdELECT product service from DiscoverX Corporation (Freemont, Calif., USA) which also employs the KINOMEscan technology. Here, inhibitor binding constants (Kd values) are calculated from duplicate 11-point dose-response curves.

TrkA [3] = target: T1, TrkA (Homo sapiens, UniProt P04629); assay: KdELECT Kd measurement (KINOMEscan), TrkA; assay type: binding
T1 sequence (P04629 33-796): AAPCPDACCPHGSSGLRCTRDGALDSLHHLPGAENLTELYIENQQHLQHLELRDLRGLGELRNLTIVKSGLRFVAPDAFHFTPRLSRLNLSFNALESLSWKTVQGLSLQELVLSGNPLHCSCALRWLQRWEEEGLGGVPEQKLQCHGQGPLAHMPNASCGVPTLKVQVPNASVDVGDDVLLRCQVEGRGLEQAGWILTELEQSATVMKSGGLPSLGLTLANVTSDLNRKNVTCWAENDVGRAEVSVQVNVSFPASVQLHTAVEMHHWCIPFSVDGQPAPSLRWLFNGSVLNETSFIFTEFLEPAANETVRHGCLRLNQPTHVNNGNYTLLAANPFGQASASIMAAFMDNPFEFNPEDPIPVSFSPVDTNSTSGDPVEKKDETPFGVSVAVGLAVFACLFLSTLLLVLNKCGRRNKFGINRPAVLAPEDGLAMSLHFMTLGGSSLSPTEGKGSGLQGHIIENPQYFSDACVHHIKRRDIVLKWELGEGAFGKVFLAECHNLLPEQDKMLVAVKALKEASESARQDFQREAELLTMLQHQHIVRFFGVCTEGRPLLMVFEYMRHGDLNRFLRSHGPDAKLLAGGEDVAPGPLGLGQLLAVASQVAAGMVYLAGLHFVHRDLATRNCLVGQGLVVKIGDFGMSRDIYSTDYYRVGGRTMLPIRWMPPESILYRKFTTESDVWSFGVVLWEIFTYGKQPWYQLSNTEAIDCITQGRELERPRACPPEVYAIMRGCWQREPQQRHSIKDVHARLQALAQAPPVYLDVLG
Description: as §2

TrkA [4] = target: T1, TrkA; assay: KINOMEscan primary screen against TrkA; assay type: binding; conditions: % of control
Description: Compounds were initially tested in a primary screen against TrkA (at 10 and 100 nM) and AurA (at 100 nM and 1 μM) using the KINOMEscan technology from DiscoverX Corporation, Fremont, Calif., USA (https://www.discoverx.com/services/drug-discovery-development-services/kinase-profiling/kinomescan).
Results were reported as % of control (% Ctrl.=(test compound signal−positive control signal)/(DMSO signal−positive control signal). KINOMEscan is an active site-directed competition binding assay that quantitatively measures the ability of a compound to compete with an immobilized, active-site directed ligand.

panel of 97 kinases = assay: Selectivity profiling, scanEDGE kinase panel (KINOMEscan); assay type: binding; conditions: 100 nM, cut-off <35% ctrl
Description: Selectivity profiling was done over a panel of 97 kinases at 100 nM concentration (scanEDGE assay panel from Discover X, which also uses the KINOMEscan technology, whereat KIT(D816V) and KIT (V559D, T6701) were replaced by TrkB and TrkC). […] The employed profiling panel consisted of the following kinases: ABL1(T3151)-phosphorylated, ABL1-nonphosphorylated, ABL1-phosphorylated, ACVR1B, ADCK3, AKT1, AKT2, ALK, AURKA, AURKB, AXL, BMPR2, BRAF, BRAF (V600E), BTK, CDK11, CDK2, CDK3, CDK7, CDK9, CHEK1, CSF1R, CSNK1D, CSNK1G2, DCAMKL1, DYRK1B, EGFR, EGFR (L858R), EPHA2, ERBB2, ERBB4, ERK1, FAK, FGFR2, FGFR3, FLT3, GSK3B, IGF1R, IKK-alpha, IKK-beta, INSR, JAK2 (JH1domain-catalytic), JAK3 (JH1domain-catalytic), JNK1, JNK2, JNK3, KIT, LKB1, MAP3K4, MAPKAPK2, MARK3, MEK1, MEK2, MET, MKNK1, MKNK2, MLK1, p38-alpha, p38-beta, PAK1, PAK2, PAK4, PCTK1, PDGFRA, PDGFRB, PDPK1, PIK3C2B, PIK3CA, PIK3CG, PIM1, PIM2, PIM3, PKAC-alpha, PLK1, PLK3, PLK4, PRKCE, RAF1, RET, RIOK2, ROCK2, RSK2 (Kin. Dom. 1-N-terminal), SNARK, SRC, SRPK3, TGFBR1, TIE2, TRKA, TRKB, TRKC, TSSK1B, TYK2 (JH1domain-catalytic), ULK2, VEGFR2, YANK3, ZAP70

CN1CCN(c2cc(Nc3cc(-c4cccc(F)c4)[nH]n3)nc(Sc3ccccc3)n2)CC1 [a1, N-[5-(3-fluorophenyl)-1H-pyrazol-3-yl]-6-(4-methylpiperazin-1-yl)-2-(phenylsulfanyl)pyrimidin-4-amine]
Plasma Conc. of Compound a1 ([1]; a1_high formulation, 25 mg/kg i.v., 25 mg/kg): 0.805 µM and 0.92 µM | Plasma Conc. of Compound a1 ([1]; a1_low formulation, 5 mg/kg i.v., 5 mg/kg): 0.272 µM and 0.407 µM | concentration at 1 h ([1]; 5 mg/kg (low dose) i.v.): 0.34 µM | concentration at 1 h ([1]; 25 mg/kg (high dose) i.v.): 0.863 µM | signs of toxicity (C57Bl/6 mice; 5 and 25 mg/kg i.v., all animals): none of the animals showed any obvious signs of toxicity; also recorded: none of the animals showed any toxic sign | Toxicity (C57Bl/6 mice; a1_high formulation, 25 mg/kg i.v.): None | Toxicity (C57Bl/6 mice; a1_low formulation, 5 mg/kg i.v.): None | ΔpKd (TrkA [2]; TrkA pKd versus AurA pKd): 3.3 | improved selectivity against off-target AurA (TrkA [2]; TrkA versus AurA): 10,000 fold | TrkA [pKd] (TrkA [3]): 8.6 | Kd (TrkA [3]; duplicate 11-point dose-response curves): 2.6 nM | % Ctrl. TrkA @10 nM (TrkA [4]; 10 nM compound): 11 % Ctrl. | % Ctrl. TrkA @100 nM (TrkA [4]; 100 nM compound): 1.9 % Ctrl. | # Hits (panel of 97 kinases; N = 92 non-mutant kinases): 7 | List of inhibited kinases (panel of 97 kinases): TrkA, TrkB, TrkC, FLT3, KIT,; also recorded: PDGFRb, RET | Selectivity Score (panel of 97 kinases; inhibited kinases/tested kinases): 0.08 and 0.076
